Patent US5565493A, “Collagen metabolism ameliorant and its use in the stimulation of hair growth” (Kanebo, Ltd., priority 1990, dated 1996)

Key:
[1] = tested on: human fibrosarcoma cell strain HT-P11; assay: Action of MSE for promoting procollagenase production (FITC-collagen collagenase activity of culture supernatant); type: cell-based
Description: A test was carried out using anchorage independent cell strain which is derived from a human fibrosarcoma cell strain HT 1080 (ATCC CCL121) and growable in a serum-free, protein-free medium (referred to as "human fibrosarcoma cell strain HT-P11".). Namely, the above-described human fibrosarcoma cell strain HT 1080 (ATCC CCL1211) was cultured in the presence of serum in a flask having a base area of 25 cm^2 and the medium was replaced by the HF-AV medium. Replacing a fifth to half part of the cultured suspension with a fresh HF-AV medium every 3-4 days, the culture was continued in a serum-free, protein-free medium. The thus grown cells were used. The cells were pre-cultured as below to prepare a cell suspension which was then tested.
The human fibrosarcoma cell strain HT-P11 was suspended with a density of 1×10^5 cells/ml in the HF-AV medium. Flasks (each having a base area of 75 cm^2) were charged, respectively, with 20 ml of the resulting suspension, and stationarily cultured at 37° C. for 3 days in a 95% air/5% carbon dioxide gas atmosphere. […]
Using a type-I collagen labeled with fluorescein isothiocyanate (hereinafter abbreviated as "FITC") (a 1 mg/ml conc. FITC/collagen acetic acid solution, manufactured by Cosmo Bio Co.) as a substrate solution, the activity (unit/ml) of the above collagenase solution was determined in accordance with the following procedure.

[2] = tested on: Rats of hepatic fibrosis induced by CCl4; assay: Effect of MSE in medical treatment for hepatic fibrosis (Hyp in liver and blood, blood plasma biochemistry); type: in vivo, male rats of Wistar origin; conditions: mean ± standard error (n = 5)
Description: (§1) A 2 ml/kg dose of an equivalent mixture of carbon tetra-chloride (CCl4) and olive oil was administered hypodermically to the back of male rats of Wistar origin (5 weeks old; a weight of 122-134 g; and 5 rats/group) twice a week (on Monday and Thursday) for 10 weeks to produce rats of hepatic fibrosis. A 3 ml/kg dose of a 66.6 mg/ml conc. MSE aqueous solution was administered perorally once a day for continual 7 weeks (except Sundays) from the 4th week after the commencement of the CCl4 administration.
Then, the whole blood was gathered from the abdominal aorta and collected in a test tube treated with heparin. This was centrifuged to obtain blood plasma. The blood plasma was stored at -80° C. until the under-mentioned biochemical examinations.
(§2) Further, after gathering the whole-blood, the liver was extracted, weighed and divided into halves under an ice-chilled condition. Then, one of the halves was frozen at -80° C. for quantification of hydroxyproline (hereinafter abbreviated as "Hyp") in the liver and the other half was fixed with a 10% formaline solution for a histological examination.
(§3) On the other hand, there were provided, as an untreated group, a group of the rats of hepatic fibrosis administered with 3 ml/kg of refined water in lieu of the MSE aqueous solution according to the same schedule as the above and, as a group of normal rats, a group bred for 10 weeks without administering CCl4 and the MSE aqueous solution. Blood-gathering and liver-extraction were conducted on these groups in the same manner as the above.
(§4) Then, using the above each liver and blood plasma, the Hyp in the liver and blood were quantified. Additionally, the Hyp is an index of the quantity of the collagen [Methods of Biochemical Analysis, Vol. 15, p. 25 (1967)]. Further, biochemical examinations of the blood plasma [refer to the under-described items (b)-(h)] and histological examinations of the liver [refer to the under-described item (i)], as indices of liver injury, were conducted.
(a) Quantities of the Hyp in liver and blood.
(a-1) Quantity of the Hyp in a liver: about 100 mg of a liver were weighed precisely and added with 250 μl of physiological salt solution. Then, the liver was disintegrated by agitating vigorously (at 28,000 rpm for 30 seconds) with a homogenizer (PHYSCOTRON™, manufactured by Niti-On Medical and Physical Instruments Mfg. Co.).
The obtained suspension was centrifuged (at 5,000 rpm for 10 min.) and separated into a supernatant sample and a precipitation sample. By adding a 6N hydrochloric acid, each sample was increased to 2 ml and hydrolyzed at 110° C. for 24 hours. The hydrolyzate solution was centrifugally condensed to remove hydrochloric acid therefrom and the condensate was dissolved in a 0.01N hydrochloric acid.
The obtained solution was quantified according to a determination method of amino acids by a high-performance liquid chromatography with a post-column derivatization [Proceedings of the National Academy of Sciences of the U.S.A., Vol. 72, No. 2, p. 619 (1975)] to find quantities of the Hyp in the supernatant sample and precipitation sample, respectively. Then, a quantity of the Hyp per unit weight of the liver (μmol/g of liver) was calculated from the total quantity of the Hyps in the supernatant sample and precipitation sample and the weight of the liver.
(a-2) Quantity of the Hyp in blood: 100 μl of blood plasma was admixed with 100 μl of a 5 w/v % sulfo-salicylic acid aqueous solution under an ice-chilled condition and centrifugally separated (10,000 rpm; for 3 min.) to obtain a supernatant liquor. The Hyp in the supernatant liquor was quantified according to the above-mentioned determination method of amino acids (μmol/1).
(b) Quantity of glutamic-pyruvic transaminase (hereinafter abbreviated as "GPT"):
(b-3) Measurement of test sample.
(c) Quantity of glutamic-oxaloacetic transaminase (hereinafter abbreviated as "GOT"): […]

[3] = tested on: Rats of hepatic fibrosis induced by CCl4; assay: Histological examination of liver; type: in vivo, male rats of Wistar origin; conditions: as compared with the untreated group; hematoxylin-eosin
Description: as §1, §2, §3, §4
(i) Histological examination of liver: a liver was sliced according to a usual method and, after staining with hematoxylin-eosin, it was microscopically observed.

male mice of ICR strain = assay: Acute toxicity; type: in vivo; conditions: single peroral dose 5 g/kg of body weight, 5 male mice, observed 7 days
Description: An acute toxicity was examined as follows:
To 5 male mice of ICR strain (5 weeks old; a weight of 24~28 g), a 25 g/ml conc. MSE aqueous solution that had been prepared by dissolving MSE in refined water was perorally administered once in a dose of […] of the body weight (5 g/kg of the body weight, as MSE).

[4] = tested on: male rabbits of Japanese native strain; assay: Skin irritative test (Draize method); type: in vivo
Description: Using male rabbits of Japanese native strain (a weight of about 3 kg), a skin irritative test was conducted in accordance with the Draize method [Appraisal of the Safety of Chemicals in Foods, Drugs and Cosmetics, p.46 (1959) edited and published by the Editorial Committee, Association of Food & Drug Official of U.S.A.].
An abraded region (injured skin) was produced on the hair-trimmed back of the rabbits. An adhesive plaster for a patch test (RIBBON-AID™ of 1.2 cm×1.6 cm, manufactured by Liba-Tape & Co., Ltd.) was impregnated with 0.1 ml of a 1 wt. % MSE aqueous solution that had been prepared by dissolving MSE in refined water and attached onto the injured skin and a normal skin, respectively. After 24 hours, the plaster was detached to observe erythematic and edematous conditions of the skins. After 48 hours from detaching of the plaster, the same observation was made.
Based on the above scores and the following equation, primary irritant scores were calculated.
Primary irritant score=(A24 +A48)/2+(B24
Then, irritation degrees of the test compounds were appraised based upon the primary irritative scores and the criteria shown in Table 6.

CN[C@@H](CO)C(=O)O [MSE, N-methyl-L-serine]
Production of procollagenase ([1]; mean ± standard error (N = 3), control 3.7 ± 0.2, 600 μM MSE solution, 0.4 ml added to 2 ml culture, 13 days, P < 0.01): 7.9 ± 0.7 unit/ml of culture solution | Production promotion rate ([1]; versus no additives (control)): 114% | f: Quantity of alkaline phosphatase ([2]; Bessey-Lowry's method, untreated 1270 ± 90, p < 0.01): 956 ± 114 unit/l | e: Quantity of gross bilirubin ([2]; Malloy-Evelyn's method, untreated 0.36 ± 0.02, p < 0.1): 0.26 ± 0.05 m9/dl | g: Thymol turbidimetric test value (TTT) ([2]; blood plasma, untreated 0.26 ± 0.06): 0.18 ± 0.13 U of Kunkel | h: Zinc sulphate turbidimetric test value (ZTT) ([2]; blood plasma, untreated 0.78 ± 0.11, p < 0.01): 0.26 ± 0.07 U of Kunkel | d: Quantity of γ-glutamyl transpeptidase (γ-GTP) ([2]; blood plasma, untreated 17.6 ± 0.7, p < 0.1): 14.4 ± 1.7 U/liter | a-2: Quantity of the Hyp in blood ([2]; blood plasma, untreated 30.6 ± 1.1, p < 0.1): 39.1 ± 3.6 μmol/1 | b: Quantity of glutamic-pyruvic transaminase (GPT) ([2]; blood plasma, untreated 948 ± 92, p < 0.01): 537 ± 182 Reitman-Frankel unit | c: Quantity of glutamic-oxaloacetic transaminase (GOT) ([2]; blood plasma, untreated 2170 ± 184, p < 0.01): 875 ± 324 Reitman-Frankel unit | a-1: Quantity of the Hyp in liver ([2]; peroral 3 ml/kg of 66.6 mg/ml once a day, 7 weeks, untreated 10.0 ± 1.5, p < 0.1): 6.79 ± 0.82 μmol/g of liver | cholangioepithelial cytogenesis [3]: mitigated | cholangiolar hyperplasia [3]: mitigated | diffuse hepatocyte vacuolization [3]: mitigated | deaths by administration (male mice of ICR strain): no deaths | primary irritative score ([4]; 0.1 ml of 1 wt. % MSE aqueous solution, injured and normal skin, after 24 and 48 hours): zero | appraisal of irritation ([4]; based on primary irritative score, 1 wt. % MSE aqueous solution): light irritation
